Experimental data reported in US20030199671A1, “Binding molecules for Fc-region polypeptides” (priority 2001, published 2003).
Positions of bridges follow the written chain, without caps; N, C: chain ends. Residues, ends and D or L forms follow the SMILES beside them.

Tests used:
human plasma IgG2 = target: T1, human plasma IgG2 (Homo sapiens, UniProt P01859); test: Fluorescence anisotropy binding, fluorescein-labeled peptide
T1 construct: the individual human plasma IgG isoforms: IgG1, IgG2, IgG3, or IgG4; purchased Calbiochem; host or cells: human plasma

[1] = target: Fc (mixture of human plasma IgG isoforms); test: as above; conditions: pH 8.0, 0.05 M Tris-HCl, 0.2 M NaCl
Procedure, shortened: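 Fluorescence anisotropy with fluorescein-labeled peptide (20 nM or 2 nM) titrated with human plasma IgG isoform or mixed-IgG Fc target. Fc buffer 50 mM Tris-HCl, 200 mM NaCl, pH 8.0, 0.01% Tween 20; IgG buffer PBS, 0.01% Tween 20. Equilibrated 10 minutes at 30° C before polarization read.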

human plasma IgG4 = target: T2, human plasma IgG4 (Homo sapiens, UniProt P01861); test: as above
T2 construct: the individual human plasma IgG isoforms: IgG1, IgG2, IgG3, or IgG4; purchased Calbiochem; host or cells: human plasma

human plasma IgG3 = target: T3, human plasma IgG3 (Homo sapiens, UniProt P01860); test: as above
T3 construct: the individual human plasma IgG isoforms: IgG1, IgG2, IgG3, or IgG4; purchased Calbiochem; host or cells: human plasma

human IgG = test: Static (filterplate) binding capacity
[2] = pH 9.3, 0.01 M sodium bicarbonate

T3 sequence (P01860 1-377 isoform P01860-1): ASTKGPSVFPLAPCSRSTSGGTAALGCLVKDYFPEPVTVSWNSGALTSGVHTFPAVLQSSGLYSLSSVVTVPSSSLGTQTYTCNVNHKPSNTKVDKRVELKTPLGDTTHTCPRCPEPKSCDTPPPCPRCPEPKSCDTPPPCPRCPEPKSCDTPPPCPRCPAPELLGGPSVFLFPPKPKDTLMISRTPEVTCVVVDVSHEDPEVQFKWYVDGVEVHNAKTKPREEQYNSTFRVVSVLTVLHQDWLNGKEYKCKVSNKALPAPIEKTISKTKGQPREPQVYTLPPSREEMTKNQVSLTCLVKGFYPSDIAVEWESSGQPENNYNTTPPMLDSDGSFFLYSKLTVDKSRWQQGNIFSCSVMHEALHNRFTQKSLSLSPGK
T2 sequence (P01861 1-327 isoform P01861-1): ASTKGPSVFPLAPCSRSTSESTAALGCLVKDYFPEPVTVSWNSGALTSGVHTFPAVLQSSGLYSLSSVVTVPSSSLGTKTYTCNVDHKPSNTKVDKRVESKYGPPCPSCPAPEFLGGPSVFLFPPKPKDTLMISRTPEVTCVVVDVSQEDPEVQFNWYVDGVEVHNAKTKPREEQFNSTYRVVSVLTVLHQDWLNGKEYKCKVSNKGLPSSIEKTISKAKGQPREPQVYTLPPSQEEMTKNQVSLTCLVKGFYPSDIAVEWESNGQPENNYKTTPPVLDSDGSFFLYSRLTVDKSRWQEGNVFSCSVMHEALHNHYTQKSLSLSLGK
T1 sequence (P01859 1-326 isoform P01859-1): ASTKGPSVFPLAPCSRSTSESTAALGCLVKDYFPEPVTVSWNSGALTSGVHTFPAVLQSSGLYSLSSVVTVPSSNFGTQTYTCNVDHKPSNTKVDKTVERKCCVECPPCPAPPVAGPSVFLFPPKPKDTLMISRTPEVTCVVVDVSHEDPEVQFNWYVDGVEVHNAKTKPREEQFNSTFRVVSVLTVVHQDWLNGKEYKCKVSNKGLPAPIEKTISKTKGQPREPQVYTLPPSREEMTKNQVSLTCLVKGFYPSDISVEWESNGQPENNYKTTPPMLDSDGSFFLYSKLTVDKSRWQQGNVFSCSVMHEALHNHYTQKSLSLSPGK

With `CC[C@H](C)[C@@H]1NC(=O)[C@H](CC(C)C)NC(=O)[C@H](CCC(=O)O)NC(=O)CNC(=O)[C@H](Cc2c[nH]c3ccccc23)NC(=O)[C@H]([C@@H](C)O)NC(=O)[C@H]([C@@H](C)O)NC(=O)[C@H](Cc2ccc(O)cc2)NC(=O)[C@H](C(C)C)NC(=O)[C@@H](NC(=O)[C@H](CCSC)NC(=O)[C@H](Cc2c[nH]cn2)NC(=O)[C@H](CC(=O)O)NC(=O)[C@H](CC(=O)O)NC(=O)CNC(C)=O)CSSC[C@@H](C(=O)N[C@@H](CC(=O)O)C(=O)N[C@@H](CC(N)=O)C(=O)N[C@@H](Cc2c[nH]cn2)C(=O)N[C@@H](CCC(=O)O)C(=O)N2CCC[C@H]2C(=O)NCC(=O)N2CCC[C@H]2C(=O)N[C@@H](CCC(=O)O)C(=O)NCC(=O)NCC(=O)NCC(=O)N[C@@H](CCCCN)C(N)=O)NC(=O)[C@H](Cc2c[nH]c3ccccc23)NC1=O` [DX249] (Ac-GDDHMCVYTTWGELIWCDNHEPGPEGGGK-NH2; disulfide 6-17) the Kd (human plasma IgG2; pH 7.4, PBS, […] NaCl) was 1.1 ± 0.3 µM, the Kd (human plasma IgG2; [2]) was > 10 µM and the Kd [1] was 2.5 ± 0.5 µM. The Kd (human plasma IgG4; pH 7.4, 0.01 M Tris-HCl) was 1.9 ± 0.4 µM, the Kd (human plasma IgG4; pH 7.4, PBS, […] NaCl) was 1.9 ± 1.2 µM and the Kd (human plasma IgG4; [2]) was > 10 µM. The Kd (human plasma IgG3; pH 5.7, 0.01 M Tris-acetate) was > 10 µM, the Kd (human plasma IgG3; pH 7.4, 0.01 M Tris-HCl) was > 10 µM and the Kd (human plasma IgG3; pH 7.4, PBS, […] NaCl) was > 10 µM. For the same compound, the Kd (human plasma IgG3; [2]) was > 10 µM, the “Capacity (mg IgG/mL resin) Static” value (human IgG; Ligand Density 0.19 μM/mL) was 1.2 mg IgG/mL resin and the “Capacity (mg IgG/mL resin) Static” value (human IgG; Ligand Density 0.86 μM/mL) was 9.5 mg IgG/mL resin. For the same compound, the “Capacity (mg IgG/mL resin) Static” value (human IgG; Ligand Density 1.63 μM/mL) was 15.4 mg IgG/mL resin, the “Capacity (mg IgG/mL resin) Static” value (human IgG; Ligand Density 3.20 μM/mL) was 19.0 mg IgG/mL resin and the “Static Cap.” value (human IgG; Table 18, 25 mg human IgG applied per ml resin, average ligand density 1.9 μmole/ml) was 24 mg/mL.
